Reference: paper PMC6478789, “A chemical toolbox for the study of bromodomains and epigenetic signaling” (Nature Communications, 2019)

How the values were obtained:
Assay in all cases: Methyl transferase scintillation proximity assay
Type in all cases: biochemical
Settings in all cases: average of two measurements; for inhibition at 10 µM: read-out: MTases Inhibition (%)
[1] = target: T1, ASH1L (Homo sapiens, UniProt Q9NR48)
T1 construct: purchased DiscoverX BROMOscan (bromodomains); SGC in-house methyltransferase panel
Procedure: (§1) Assays measuring lysine and arginine methyl transferase activity have been described in Scheer et al.. A radioactivity-based scintillation proximity assay was used to monitor incorporation of a tritium-labeled methyl group into the biotinylated substrate of the methyl transferase. A 10-μl reaction containing ^3H-SAM and substrate at concentrations close to the apparent Km values for each enzyme was prepared. The reactions were quenched with 10 μl of 7.5 M guanidine hydrochloride; 180 μl of 20 mM Tris buffer (pH 8.0) were added; and the mixture was transferred to a 96-well FlashPlate and incubated for 1 h. The counts per minute (CPM) was measured on a TopCount plate reader. The CPM in the absence of compound or enzyme was defined as 100% activity and background (0%), respectively, for each dataset.

[2] = target: T2, NSD1 (Homo sapiens, UniProt Q96L73)
T2 construct: purchased DiscoverX BROMOscan (bromodomains); SGC in-house methyltransferase panel
T2 sequence (Q96L73 whole entry): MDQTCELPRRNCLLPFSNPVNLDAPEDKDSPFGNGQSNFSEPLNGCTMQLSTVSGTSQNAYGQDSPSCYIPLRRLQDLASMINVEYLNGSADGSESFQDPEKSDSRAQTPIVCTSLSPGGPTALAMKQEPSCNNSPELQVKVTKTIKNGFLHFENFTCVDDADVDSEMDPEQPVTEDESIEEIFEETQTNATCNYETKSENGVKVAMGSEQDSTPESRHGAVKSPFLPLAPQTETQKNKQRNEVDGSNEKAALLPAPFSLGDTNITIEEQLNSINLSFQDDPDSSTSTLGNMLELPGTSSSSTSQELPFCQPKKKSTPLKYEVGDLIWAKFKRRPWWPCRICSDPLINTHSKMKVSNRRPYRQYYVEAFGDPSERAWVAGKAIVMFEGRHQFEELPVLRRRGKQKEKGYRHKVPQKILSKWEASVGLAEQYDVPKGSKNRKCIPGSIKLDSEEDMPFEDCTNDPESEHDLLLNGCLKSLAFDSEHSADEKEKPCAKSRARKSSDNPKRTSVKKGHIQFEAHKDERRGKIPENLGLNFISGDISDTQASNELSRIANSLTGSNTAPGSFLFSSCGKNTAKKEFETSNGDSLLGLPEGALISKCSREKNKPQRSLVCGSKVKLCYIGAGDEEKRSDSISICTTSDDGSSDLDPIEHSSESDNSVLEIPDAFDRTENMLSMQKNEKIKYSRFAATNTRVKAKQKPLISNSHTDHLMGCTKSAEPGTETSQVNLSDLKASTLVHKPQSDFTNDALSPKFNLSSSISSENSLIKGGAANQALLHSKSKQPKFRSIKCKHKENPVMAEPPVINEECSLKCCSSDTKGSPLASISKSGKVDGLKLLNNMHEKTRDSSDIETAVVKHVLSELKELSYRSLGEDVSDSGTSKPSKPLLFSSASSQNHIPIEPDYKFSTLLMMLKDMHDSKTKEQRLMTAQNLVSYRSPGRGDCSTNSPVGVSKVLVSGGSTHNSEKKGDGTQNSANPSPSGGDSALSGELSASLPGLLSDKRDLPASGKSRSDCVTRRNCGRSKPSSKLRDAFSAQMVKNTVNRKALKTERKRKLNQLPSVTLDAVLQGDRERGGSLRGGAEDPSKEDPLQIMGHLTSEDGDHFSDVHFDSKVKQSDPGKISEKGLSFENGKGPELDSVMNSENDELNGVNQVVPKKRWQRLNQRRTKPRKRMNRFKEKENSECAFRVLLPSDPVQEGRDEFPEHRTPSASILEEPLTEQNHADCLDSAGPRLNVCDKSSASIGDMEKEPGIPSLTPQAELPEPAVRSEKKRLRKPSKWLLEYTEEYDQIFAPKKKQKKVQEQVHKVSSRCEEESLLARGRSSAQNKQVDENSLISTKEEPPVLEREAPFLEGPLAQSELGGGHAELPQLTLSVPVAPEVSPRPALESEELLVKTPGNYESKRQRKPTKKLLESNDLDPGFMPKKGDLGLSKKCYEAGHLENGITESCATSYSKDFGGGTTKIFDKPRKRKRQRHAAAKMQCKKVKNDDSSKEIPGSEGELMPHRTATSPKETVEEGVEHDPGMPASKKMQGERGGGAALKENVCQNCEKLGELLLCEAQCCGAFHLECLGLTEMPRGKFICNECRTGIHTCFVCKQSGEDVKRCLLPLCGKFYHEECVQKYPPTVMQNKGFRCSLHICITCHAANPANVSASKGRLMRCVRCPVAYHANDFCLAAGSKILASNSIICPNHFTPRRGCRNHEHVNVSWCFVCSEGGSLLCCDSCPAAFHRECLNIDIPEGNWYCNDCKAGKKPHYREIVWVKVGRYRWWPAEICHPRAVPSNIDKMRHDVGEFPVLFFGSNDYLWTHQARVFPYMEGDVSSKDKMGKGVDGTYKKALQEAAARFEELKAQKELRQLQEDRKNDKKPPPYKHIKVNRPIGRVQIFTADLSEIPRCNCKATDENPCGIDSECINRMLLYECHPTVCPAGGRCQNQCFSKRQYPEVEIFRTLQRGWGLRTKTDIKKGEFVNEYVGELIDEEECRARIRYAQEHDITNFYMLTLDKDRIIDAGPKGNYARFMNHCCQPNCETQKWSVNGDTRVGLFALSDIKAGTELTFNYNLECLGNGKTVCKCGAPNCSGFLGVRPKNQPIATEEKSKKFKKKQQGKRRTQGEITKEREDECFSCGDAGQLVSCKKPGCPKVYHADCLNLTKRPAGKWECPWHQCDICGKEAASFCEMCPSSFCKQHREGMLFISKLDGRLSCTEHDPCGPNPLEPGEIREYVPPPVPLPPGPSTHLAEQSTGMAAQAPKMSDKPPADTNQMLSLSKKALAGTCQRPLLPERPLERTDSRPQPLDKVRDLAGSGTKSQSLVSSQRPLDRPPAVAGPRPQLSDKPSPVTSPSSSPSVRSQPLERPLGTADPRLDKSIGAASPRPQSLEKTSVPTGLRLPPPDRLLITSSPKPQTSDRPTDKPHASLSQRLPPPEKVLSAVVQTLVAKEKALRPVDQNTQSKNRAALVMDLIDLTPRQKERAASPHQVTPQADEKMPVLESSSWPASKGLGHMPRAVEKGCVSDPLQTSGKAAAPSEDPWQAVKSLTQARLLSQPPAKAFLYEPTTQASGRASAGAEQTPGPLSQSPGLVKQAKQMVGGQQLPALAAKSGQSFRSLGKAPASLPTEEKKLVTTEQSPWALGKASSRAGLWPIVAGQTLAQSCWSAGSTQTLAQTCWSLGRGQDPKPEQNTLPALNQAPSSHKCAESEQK
Procedure: as §1

[3] = target: T3, NSD2 (Homo sapiens, UniProt O96028)
T3 construct: purchased DiscoverX BROMOscan (bromodomains); SGC in-house methyltransferase panel
T3 sequence (O96028 1-1365): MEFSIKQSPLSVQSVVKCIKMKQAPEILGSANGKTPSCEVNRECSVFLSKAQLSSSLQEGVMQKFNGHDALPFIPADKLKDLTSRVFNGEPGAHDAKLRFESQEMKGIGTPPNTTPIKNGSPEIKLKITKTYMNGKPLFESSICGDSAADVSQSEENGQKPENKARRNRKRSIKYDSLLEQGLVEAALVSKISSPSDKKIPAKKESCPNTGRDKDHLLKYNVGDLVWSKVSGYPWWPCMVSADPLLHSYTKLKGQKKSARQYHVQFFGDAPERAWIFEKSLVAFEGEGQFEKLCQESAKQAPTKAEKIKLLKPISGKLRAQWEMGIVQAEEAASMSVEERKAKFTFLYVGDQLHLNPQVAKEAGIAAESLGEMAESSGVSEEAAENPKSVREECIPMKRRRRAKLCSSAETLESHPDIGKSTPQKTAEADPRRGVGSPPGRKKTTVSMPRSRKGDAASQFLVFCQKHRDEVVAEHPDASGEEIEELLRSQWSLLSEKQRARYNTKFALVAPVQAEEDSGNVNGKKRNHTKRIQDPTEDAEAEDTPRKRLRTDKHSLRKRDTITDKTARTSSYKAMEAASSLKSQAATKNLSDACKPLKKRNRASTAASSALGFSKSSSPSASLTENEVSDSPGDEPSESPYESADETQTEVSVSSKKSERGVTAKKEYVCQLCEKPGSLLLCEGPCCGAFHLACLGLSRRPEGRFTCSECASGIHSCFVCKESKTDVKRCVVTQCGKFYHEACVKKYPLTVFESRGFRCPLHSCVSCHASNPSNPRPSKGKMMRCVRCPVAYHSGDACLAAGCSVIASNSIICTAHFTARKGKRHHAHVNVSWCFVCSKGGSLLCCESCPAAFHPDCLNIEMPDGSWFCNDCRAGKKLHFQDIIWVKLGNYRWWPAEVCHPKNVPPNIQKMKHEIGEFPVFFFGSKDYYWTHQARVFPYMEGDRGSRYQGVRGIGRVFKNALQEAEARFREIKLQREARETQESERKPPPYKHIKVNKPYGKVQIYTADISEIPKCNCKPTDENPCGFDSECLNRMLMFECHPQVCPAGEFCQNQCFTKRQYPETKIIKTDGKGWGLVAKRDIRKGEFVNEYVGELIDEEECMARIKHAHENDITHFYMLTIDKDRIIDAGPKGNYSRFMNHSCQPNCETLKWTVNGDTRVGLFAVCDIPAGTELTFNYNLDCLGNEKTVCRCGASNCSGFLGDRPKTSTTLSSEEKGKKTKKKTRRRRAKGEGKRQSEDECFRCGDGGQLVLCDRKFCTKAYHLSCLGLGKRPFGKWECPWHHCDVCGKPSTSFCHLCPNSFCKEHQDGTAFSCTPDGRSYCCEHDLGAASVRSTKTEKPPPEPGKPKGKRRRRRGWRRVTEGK
Procedure: as §1

[4] = target: T4, SETD7 (Homo sapiens, UniProt Q8WTS6)
T4 construct: purchased DiscoverX BROMOscan (bromodomains); SGC in-house methyltransferase panel
T4 sequence (Q8WTS6 1-366): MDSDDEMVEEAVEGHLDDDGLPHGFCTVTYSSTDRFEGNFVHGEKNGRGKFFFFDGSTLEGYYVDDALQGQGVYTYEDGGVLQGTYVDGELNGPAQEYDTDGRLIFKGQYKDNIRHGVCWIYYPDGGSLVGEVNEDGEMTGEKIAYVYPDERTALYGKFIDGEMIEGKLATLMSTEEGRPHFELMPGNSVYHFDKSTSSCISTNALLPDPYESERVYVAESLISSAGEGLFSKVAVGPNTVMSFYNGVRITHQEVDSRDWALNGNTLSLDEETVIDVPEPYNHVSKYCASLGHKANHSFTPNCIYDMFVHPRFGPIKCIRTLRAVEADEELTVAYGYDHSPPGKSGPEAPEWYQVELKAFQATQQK
Procedure: as §1

[5] = target: T5, SMYD2 (Homo sapiens, UniProt Q9NRG4)
T5 construct: purchased DiscoverX BROMOscan (bromodomains); SGC in-house methyltransferase panel
T5 sequence (Q9NRG4 whole entry): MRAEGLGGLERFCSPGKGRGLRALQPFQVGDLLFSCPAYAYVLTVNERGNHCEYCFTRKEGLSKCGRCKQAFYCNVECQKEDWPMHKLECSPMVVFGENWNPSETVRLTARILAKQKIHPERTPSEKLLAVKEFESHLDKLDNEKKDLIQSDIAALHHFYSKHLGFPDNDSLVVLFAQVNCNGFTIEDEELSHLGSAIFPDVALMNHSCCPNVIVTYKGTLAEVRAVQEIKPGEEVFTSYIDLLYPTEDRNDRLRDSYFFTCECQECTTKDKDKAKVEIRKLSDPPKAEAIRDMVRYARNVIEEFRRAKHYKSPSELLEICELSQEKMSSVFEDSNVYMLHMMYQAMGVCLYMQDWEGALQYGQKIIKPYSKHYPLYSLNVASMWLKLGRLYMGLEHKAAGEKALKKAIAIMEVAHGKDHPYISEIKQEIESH
Procedure: as §1

[6] = target: T6, SUV39H1 (Homo sapiens, UniProt O43463)
T6 construct: purchased DiscoverX BROMOscan (bromodomains); SGC in-house methyltransferase panel
T6 sequence (O43463 1-412): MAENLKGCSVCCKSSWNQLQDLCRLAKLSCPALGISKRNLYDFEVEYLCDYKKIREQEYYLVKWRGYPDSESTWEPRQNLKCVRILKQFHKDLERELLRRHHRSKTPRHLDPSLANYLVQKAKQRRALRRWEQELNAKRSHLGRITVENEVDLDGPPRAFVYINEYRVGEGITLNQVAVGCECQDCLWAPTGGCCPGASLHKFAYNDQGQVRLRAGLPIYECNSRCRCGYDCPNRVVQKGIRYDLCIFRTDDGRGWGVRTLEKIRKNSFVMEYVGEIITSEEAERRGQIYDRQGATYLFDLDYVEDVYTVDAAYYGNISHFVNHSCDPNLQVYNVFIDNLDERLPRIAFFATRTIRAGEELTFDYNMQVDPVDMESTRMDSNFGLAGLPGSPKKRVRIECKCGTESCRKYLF
Procedure: as §1

Row | inhibition at 10 µM [1] [%] | inhibition at 10 µM [2] [%] | inhibition at 10 µM [3] [%] | inhibition at 10 µM [4] [%] | inhibition at 10 µM [5] [%] | inhibition at 10 µM [6] [%] | MTases Inhibition (%) ([1]; 10µM) | MTases Inhibition (%) ([2]; 10µM) | MTases Inhibition (%) ([3]; 10µM) | MTases Inhibition (%) ([4]; 10µM) | MTases Inhibition (%) ([5]; 10µM) | MTases Inhibition (%) ([6]; 10µM) | Compound
1 | 2 | 19 | 24 | 7 | -2 | -2 | – | – | – | – | – | – | CO[C@H]1CNC[C@@H](OCC2CCC(F)(F)CC2)[C@@H]1Nc1ncc(-c2cncc(C)c2)c2cc(C)c(=O)[nH]c12 [GSK8814]
2 | – | – | – | – | – | – | 4 | 1 | 13 | 7 | -3 | -3 | COc1ccccc1C(=O)Nc1cc2c(cc1N1CCNC[C@H]1C)n(C)c(=O)n2C [GSK6853]
3 | 13 | 4 | 15 | 12 | 2 | -3 | – | – | – | – | – | – | CN1C[C@H](Nc2cnn(C)c(=O)c2Br)C[C@H](c2ccccc2)C1 [GSK4027]

More lines, now with the values behind:

Row | Compound | inhibition at 10 µM [1] [%] | inhibition at 10 µM [2] [%] | inhibition at 10 µM [3] [%] | inhibition at 10 µM [4] [%] | inhibition at 10 µM [5] [%] | inhibition at 10 µM [6] [%] | MTases Inhibition (%) ([1]; 10µM) | MTases Inhibition (%) ([2]; 10µM) | MTases Inhibition (%) ([3]; 10µM) | MTases Inhibition (%) ([4]; 10µM) | MTases Inhibition (%) ([5]; 10µM) | MTases Inhibition (%) ([6]; 10µM)
4 | Cc1c(NC(=O)c2cc(C(N)=O)nc3cc(F)ccc23)c(C(F)(F)F)nn1Cc1ccc(C#N)cc1 [BAY-876] | 4 | 2 | 0 | 10 | -10 | 16 | – | – | – | – | – | –
5 | CN(C)CCCOc1ccc(-c2cc(NCCCn3cccn3)nc(S(C)(=O)=O)n2)cc1 [TP-238] | -4 | 1 | 3 | -1 | -2 | -1 | – | – | – | – | – | –
6 | COc1cc(Cl)c(C(=O)N[C@@H](CN[C@H]2CC[C@@H](N)CC2)Cc2ccc(C#N)cc2)cc1-c1ccc(CN[C@H](C)c2ccc(C)cc2)o1 [BAY-850] | 3 | 2 | -1 | 11 | 19 | 5 | – | – | – | – | – | –
7 | Cc1nnc2c3ccccc3c(N[C@@H](C)[C@H](c3ccccc3)N(C)C)nn12 [L-Moses] | -3 | -6 | 2 | 7 | -10 | -2 | – | – | – | – | – | –
8 | Cc1c(NC(=O)c2cc(C(N)=O)nc3cc(F)ccc23)c(C(F)(F)F)nn1Cc1ccc(C(C)(C)C)cc1 [BAY-588] | -6 | 11 | 2 | 10 | 8 | 12 | – | – | – | – | – | –
